What was measured:
[1] = Fidelity of in vitro DNA synthesis (error frequency) with AMV DNA polymerase copying synthetic polynucleotide templates; details: amv dna polymerase
Description: (§1) In this invention, the ability of carcinogens to decrease the fidelity of in vitro DNA synthesis will be used to screen for carcinogenic or mutagenic agents. The system uses synthetic polynucleotides of defined composition which may be copied in the test tubes with procaryotic, eucaryotic or viral DNA polymerases. The use of synthetic polynucleotides of defined composition allows the measurement of the simultaneous incorporation of the correct, complementary nucleotide and an incorrect, non-complementary nucleotide. The correct nucleotide is labeled with [α-^32 P] of low specific activity and the incorrect nucleotide is labeled with [^3 H] of high specific activity. Through this double labeled reaction it is possible to determine the simultaneous incorporation of both nucleotides and thus to determine an error frequency. The error frequency may be defined as the ratio of the incorrect/correct nucleotide incorporation. Agents which increase this error frequency may be scored as positive. […] Agents which score positive would be checked using different templates to underscore the positive results. In this system different polymerases will be used as well as different templates. One would expect that most carcinogens would change the fidelity of DNA synthesis with different polymerases as well as with different templates though this need not be the case.
(§2) Each assay will consist of a polymerase, a polynucleotide template that only contains one or two nucleotides, a complementary nucleotide and a non-complementary nucleotide as well as magnesium. Both of the nucleotides will be labeled by radioactive precursors and the ratio between the two is to be used for a measure of error frequency in the system. In instances where a template requires two complementary nucleotides, only one will be radioactively labeled.
(§3) Reactions (total volume 0.05 ml) which measured complementary nucleotide incorporation contained 50 mM Tris-HCL (pH 8.0), 20 mM KCl, 5 mM dithiothreitol, 5 mM MgCl2, 2μg BSA, […] [α-^32 P] -dTTP (60 dpm/pmole), 1μg poly (A).oligo (dT) (1:1.5 mass ratio), and 0.45 μg of AMV DNA polymerase. For simultaneous quantitation of complementary and non-complementary nucleotide incorporation each reaction was modified to contain 26μM [α-^32 P]dTTP (12 dpm/pmole) and 23μM [^3 H]-dCTP (50,000 dpm/pmole). […] Metals were added directly to the reaction mixture as aqueous solutions of chloride salts. All reactions were incubated for 60 min. at 37° C. Incorporation of radioactive nucleotides into an acid-insoluble and alkali-resistant product was determined by using the precipitation-solubilization procedure as described by Battula and Loeb. All experiments were performed in triplicate and the averages were determined.
(§4) In order to determine the effect of different metals on the accuracy of DNA replication, metal cations were added as chloride salts directly to the polymerase reaction. In these experiments, poly (A).oligo (dT) was the template-primer and the simultaneous incorporation of complementary nucleotide, [α-^32 P]-dTMP, and the non-complementery nucleotide, [^3 H]-dCMP, was determined.
(§5) The effect of metal salts on the fidelity of DNA synthesis was examined by testing each of the metal salts at a minimum of seven different concentrations.

AMV DNA polymerase [2] = assay: as above; details: for effect on error frequency (in words): dTMP complementary, dCMP non-complementary
Description: as §1, §2, §3, §4, §5

[3] = known status of the compound; cited from earlier work
AMV DNA polymerase [4] = assay: Metal requirements for catalysis by AMV DNA polymerase; type: biochemical, avian myeloblastosis virus; details: poly (A).oligo (dT); for ability to substitute for Mg^2+ as added divalent cation: absence of Mg^2+, Be^2+ up to 15 mM
Procedure: All known DNA polymerases require either Mg^2+ or Mn^2+ as an added divalent cation for activity. AMV DNA polymerase used Mg^2+ as an added divalent cation and the maximum rate of polymerization with poly (A).oligo (dT) was attained at 5 mM Mg^2+. […] Thymidine monophosphate incorporation with Be^2+ was less than 0.3% of that obtained with 5 mM Mg^2+.

[5] = Table 1, template poly [d(A-T)], classes 1-3 not defined
[6] = 2 mM added cation + Mg^2+ 5 mM, poly (A).oligo (dT)
[7] = 2 mM added cation + Mg^2+ 5 mM, poly (A).oligo (dT), dCMP/dTMP
[8] = 6 mM added cation + Mg^2+ 5 mM, poly (A).oligo (dT)
[9] = 10 mM added cation + Mg^2+ 5 mM, poly (A).oligo (dT)
[10] = Table 1, template poly (A).oligo (dT), classes 1-3 not defined
[11] = Table 1, template poly (C).oligo (dG), classes 1-3 not defined
[12] = 4 mM MgSO4, template in drawing 6
[13] = 6 mM MgSO4, template in drawing 6
[14] = 8 mM MgSO4, template in drawing 6
[15] = 10 mM MgSO4, template in drawing 6
[16] = 1 mM added cation + Mg^2+ 5 mM, poly (A).oligo (dT)
[17] = 5 mM added cation + Mg^2+ 5 mM, poly (A).oligo (dT)
[18] = Mg^2+ 2 mM alone, poly (A).oligo (dT)
[19] = Mg^2+ 5 mM alone, poly (A).oligo (dT)
[20] = Mg^2+ 8 mM alone, poly (A).oligo (dT)
[21] = Mg^2+ 15 mM alone, poly (A).oligo (dT)

O=C(O)O [NaHCO3]
fold induction at 1 h ([1]; poly [d(a-t)]): 0.96
Class (AMV DNA polymerase [2]; [5]): 2
Metal Concentration which yielded the largest observed change in error rate (AMV DNA polymerase [2]; template poly [d(A-T)]): 40 mM
Carcinogen or Mutagen [3]: -

[Ba+2].[Cl-].[Cl-] [BaCl2]
Complementary Nucleotide (pmoles dTMP) (AMV DNA polymerase [2]; [6]): 240 pmol
Non-Complementary Nucleotide (pmoles dCMP) (AMV DNA polymerase [2]; [6]): 0.42 pmol
Error Frequency (AMV DNA polymerase [2]; [7]): 1/578
Complementary Nucleotide (pmoles dTMP) (AMV DNA polymerase [2]; [8]): 243 pmol
Non-Complementary Nucleotide (pmoles dCMP) (AMV DNA polymerase [2]; [8]): 0.46 pmol
Error Frequency (AMV DNA polymerase [2]; 6 mM added cation + Mg^2+ 5 mM, poly (A).oligo (dT), dCMP/dTMP): 1/528
Complementary Nucleotide (pmoles dTMP) (AMV DNA polymerase [2]; [9]): 317 pmol
Non-Complementary Nucleotide (pmoles dCMP) (AMV DNA polymerase [2]; [9]): 0.61 pmol
Error Frequency (AMV DNA polymerase [2]; 10 mM added cation + Mg^2+ 5 mM, poly (A).oligo (dT), dCMP/dTMP): 1/520
Class (AMV DNA polymerase [2]; [10]): 2
effect on error frequency (in words) (AMV DNA polymerase [2]; poly (A).oligo (dT)): did not affect either the incorporation of the complementary or non-complementary nucleotides
Metal Concentration which yielded the largest observed change in error rate (AMV DNA polymerase [2]; template poly (A).oligo (dT)): 10 mM
ability to substitute for Mg^2+ as added divalent cation (AMV DNA polymerase [4]): unable to substitute for Mg^2+
Carcinogen or Mutagen [3]: -

CC(=O)O [Ba(C2 H3 O2)2]
fold induction at 1 h ([1]; poly [d(a-t)]): 0.94
Class (AMV DNA polymerase [2]; [5]): 2
Metal Concentration which yielded the largest observed change in error rate (AMV DNA polymerase [2]; template poly [d(A-T)]): 10 mM

CC(=O)O [NaC2 H3 O2]
fold induction at 1 h ([1]; poly(c).oligo(dg)): 1
Class (AMV DNA polymerase [2]; [11]): 2
Metal Concentration which yielded the largest observed change in error rate (AMV DNA polymerase [2]; template poly (C).oligo (dG)): 100 mM
Carcinogen or Mutagen [3]: -

O=S(=O)([O-])[O-].[Mg+2] [MgSO4]
Complementary Deoxynucleotide Incorporation (AMV DNA polymerase [2]; [12]): 299 pmol
Error Frequency (AMV DNA polymerase [2]; [12]): 1/598
Non-complementary Deoxynucleotide Incorporation (AMV DNA polymerase [2]; [12]): 0.50 pmol
Complementary Deoxynucleotide Incorporation (AMV DNA polymerase [2]; [13]): 398 pmol
Error Frequency (AMV DNA polymerase [2]; [13]): 1/632
Non-complementary Deoxynucleotide Incorporation (AMV DNA polymerase [2]; [13]): 0.63 pmol
Complementary Deoxynucleotide Incorporation (AMV DNA polymerase [2]; [14]): 349 pmol
Error Frequency (AMV DNA polymerase [2]; [14]): 1/635
Non-complementary Deoxynucleotide Incorporation (AMV DNA polymerase [2]; [14]): 0.55 pmol
Complementary Deoxynucleotide Incorporation (AMV DNA polymerase [2]; [15]): 360 pmol
Error Frequency (AMV DNA polymerase [2]; [15]): 1/621
Non-complementary Deoxynucleotide Incorporation (AMV DNA polymerase [2]; [15]): 0.58 pmol
Class (AMV DNA polymerase [2]; [11]): 3
Class (AMV DNA polymerase [2]; Table 2, classes not defined): 3
Metal Concentration which yielded the largest observed change in error rate (AMV DNA polymerase [2]; template poly (C).oligo (dG)): 10 mM
Carcinogen or Mutagen [3]: -

[Ca+2].[Cl-].[Cl-] [CaCl2]
Complementary Nucleotide (pmoles dTMP) (AMV DNA polymerase [2]; [16]): 704 pmol
Non-Complementary Nucleotide (pmoles dCMP) (AMV DNA polymerase [2]; [16]): 0.70 pmol
Error Frequency (AMV DNA polymerase [2]; 1 mM added cation + Mg^2+ 5 mM, poly (A).oligo (dT), dCMP/dTMP): 1/1005
Complementary Nucleotide (pmoles dTMP) (AMV DNA polymerase [2]; [6]): 129 pmol
Non-Complementary Nucleotide (pmoles dCMP) (AMV DNA polymerase [2]; [6]): 0.19 pmol
Error Frequency (AMV DNA polymerase [2]; [7]): 1/681
Complementary Nucleotide (pmoles dTMP) (AMV DNA polymerase [2]; [17]): 55 pmol
Non-Complementary Nucleotide (pmoles dCMP) (AMV DNA polymerase [2]; [17]): 0.083 pmol
Error Frequency (AMV DNA polymerase [2]; 5 mM added cation + Mg^2+ 5 mM, poly (A).oligo (dT), dCMP/dTMP): 1/665
Class (AMV DNA polymerase [2]; [10]): 2
effect on error frequency (in words) (AMV DNA polymerase [2]; poly (A).oligo (dT)): did not alter the error frequency
Metal Concentration which yielded the largest observed change in error rate (AMV DNA polymerase [2]; template poly (A).oligo (dT)): 5 mM
ability to substitute for Mg^2+ as added divalent cation (AMV DNA polymerase [4]): unable to substitute for Mg^2+
Carcinogen or Mutagen [3]: -

[Cl-].[Rb+] [RbCl2]
Class (AMV DNA polymerase [2]; [5]): 2
Metal Concentration which yielded the largest observed change in error rate (AMV DNA polymerase [2]; template poly [d(A-T)]): 20 mM
Carcinogen or Mutagen [3]: -

O=CO [NH4 COOH]
fold induction at 1 h ([1]; poly [d(a-t)]): 0.83
Class (AMV DNA polymerase [2]; [5]): 2
Metal Concentration which yielded the largest observed change in error rate (AMV DNA polymerase [2]; template poly [d(A-T)]): 100 mM

[Cl][Cd][Cl] [CdCl2]
Class (AMV DNA polymerase [2]; [11]): 1
Metal Concentration which yielded the largest observed change in error rate (AMV DNA polymerase [2]; template poly (C).oligo (dG)): 0.04 mM
Carcinogen or Mutagen [3]: +

[Cl-].[Cl-].[Mg+2] [Mg^2+, magnesium chloride]
Complementary Nucleotide (pmoles dTMP) (AMV DNA polymerase [2]; [18]): 320 pmol
Non-Complementary Nucleotide (pmoles dCMP) (AMV DNA polymerase [2]; [18]): 0.56 pmol
Error Frequency (AMV DNA polymerase [2]; Mg^2+ 2 mM alone, poly (A).oligo (dT), dCMP/dTMP): 1/571
Complementary Nucleotide (pmoles dTMP) (AMV DNA polymerase [2]; [19]): 600 pmol
Non-Complementary Nucleotide (pmoles dCMP) (AMV DNA polymerase [2]; [19]): 1.16 pmol
Error Frequency (AMV DNA polymerase [2]; Mg^2+ 5 mM alone, poly (A).oligo (dT), dCMP/dTMP): 1/517
Complementary Nucleotide (pmoles dTMP) (AMV DNA polymerase [2]; [20]): 520 pmol
Non-Complementary Nucleotide (pmoles dCMP) (AMV DNA polymerase [2]; [20]): 1.00 pmol
Error Frequency (AMV DNA polymerase [2]; Mg^2+ 8 mM alone, poly (A).oligo (dT), dCMP/dTMP): 1/520
Complementary Nucleotide (pmoles dTMP) (AMV DNA polymerase [2]; [21]): 240 pmol
Non-Complementary Nucleotide (pmoles dCMP) (AMV DNA polymerase [2]; [21]): 0.90 pmol
Error Frequency (AMV DNA polymerase [2]; Mg^2+ 15 mM alone, poly (A).oligo (dT), dCMP/dTMP): 1/600
effect on error frequency (in words) (AMV DNA polymerase [2]; poly (A).oligo (dT)): invariant with respect to Mg^2+ concentration
Mg^2+ concentration at which the maximum rate of polymerization was attained (AMV DNA polymerase [4]): 5 mM

[Cl][Fe][Cl] [FeCl2]
Class (AMV DNA polymerase [2]; [11]): 2
Metal Concentration which yielded the largest observed change in error rate (AMV DNA polymerase [2]; template poly (C).oligo (dG)): 4 mM
Carcinogen or Mutagen [3]: ±

[Cl-].[Cl-].[Zn+2] [ZnCl2]
Class (AMV DNA polymerase [2]; [5]): 2
Metal Concentration which yielded the largest observed change in error rate (AMV DNA polymerase [2]; template poly [d(A-T)]): 0.4 mM
Carcinogen or Mutagen [3]: ±

O=S(=O)([O-])[O-].O=S(=O)([O-])[O-].O=S(=O)([O-])[O-].[Al+3].[Al+3] [(Al)2 (SO4)3]
Class (AMV DNA polymerase [2]; [5]): 2
Metal Concentration which yielded the largest observed change in error rate (AMV DNA polymerase [2]; template poly [d(A-T)]): 10 mM
Carcinogen or Mutagen [3]: -

O=P([O-])(O)O.[K+] [KH2 PO4]
Class (AMV DNA polymerase [2]; [5]): 2
Metal Concentration which yielded the largest observed change in error rate (AMV DNA polymerase [2]; template poly [d(A-T)]): 80 mM
Carcinogen or Mutagen [3]: -

Source: patent US4072574A, “System for in vitro assay for mutagenicity and/or carcinogenicity of chemicals or other exogenous agents” (priority 1976, dated 1978)
